From article PMC8611796, “Defining natural factors that stimulate and inhibit cellulose:xyloglucan hetero‐transglucosylation” (The Plant Journal, 2021)

Tests used:
Format in all cases: biochemical
[1] = target: T1, EfHTG (Equisetum fluviatile hetero-trans-beta-glucanase) (Equisetum fluviatile, UniProt A0A0K2WA62); test: radiochemical CXE and MXE assay, [3H]XXXGol incorporation; details: cellulose or MLG donor, succinate pH 5.5, 20 C, 24 h
T1 construct: gene HTG; secreted by Pichia pastoris SMD1168H; culture filtrate used; made as in Simmons et al. 2015
T1 sequence (A0A0K2WA62 22-280): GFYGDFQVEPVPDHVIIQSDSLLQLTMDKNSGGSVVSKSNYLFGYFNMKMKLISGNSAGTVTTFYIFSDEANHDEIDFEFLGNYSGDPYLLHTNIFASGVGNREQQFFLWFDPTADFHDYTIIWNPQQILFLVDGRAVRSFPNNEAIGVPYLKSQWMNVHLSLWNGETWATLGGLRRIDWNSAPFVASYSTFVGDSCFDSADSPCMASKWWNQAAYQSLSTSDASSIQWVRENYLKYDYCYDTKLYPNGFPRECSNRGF

[2] = target: T1, EfHTG (Equisetum fluviatile hetero-trans-beta-glucanase); test: radiochemical transglucosylase assay (XET, MXE, CXE); details: acceptor substrate; labelled compound; xyloglucan, MLG or cellulose donor; pH 5.5
[3] = target: T1, EfHTG (Equisetum fluviatile hetero-trans-beta-glucanase); test: radiochemical CXE assay, [3H]XXXGol incorporation; details: read-out: % inhibition at 0.3 mM

SMILES	% inhibition ([1]; [3H]XXXGol acceptor)	also measured
OC[C@H]1O[C@@H](O[C@H]2[C@H](O)[C@@H](O)[C@H](O[C@H]3[C@H](O)[C@@H](O)[C@H](O[C@H]4[C@H](O)[C@@H](O)[C@H](O[C@H]5[C@H](O)[C@@H](O)[C@H](O[C@H]6[C@H](O)[C@@H](O)C(O)O[C@@H]6CO)O[C@@H]5CO)O[C@@H]4CO)O[C@@H]3CO)O[C@@H]2CO)[C@H](O)[C@@H](O)[C@@H]1O (stereo partly shown) [cellohexaose]	We found that cello‐oligosaccharides (C2–C6) are efficient inhibitors of Equisetum HTG	–
OC[C@H]1O[C@@H](O[C@H]2[C@H](O)[C@@H](O)[C@H](O[C@H]3[C@H](O)[C@@H](O)C(O)O[C@@H]3CO)O[C@@H]2CO)[C@H](O)[C@@H](O)[C@@H]1O (stereo partly shown) [cellotriose]	We found that cello‐oligosaccharides (C2–C6) are efficient inhibitors of Equisetum HTG	–
OC[C@H]1O[C@@H](O[C@H]2[C@H](O)[C@@H](O)[C@H](O[C@H]3[C@H](O)[C@@H](O)[C@H](O[C@H]4[C@H](O)[C@@H](O)[C@H](O[C@H]5[C@H](O)[C@@H](O)C(O)O[C@@H]5CO)O[C@@H]4CO)O[C@@H]3CO)O[C@@H]2CO)[C@H](O)[C@@H](O)[C@@H]1O (stereo partly shown) [cellopentaose]	We found that cello‐oligosaccharides (C2–C6) are efficient inhibitors of Equisetum HTG	–
OC[C@@H](O)[C@@H](O[C@@H]1O[C@H](CO[C@H]2OC[C@@H](O)[C@H](O)[C@H]2O)[C@@H](O[C@@H]2O[C@H](CO[C@H]3OC[C@@H](O)[C@H](O)[C@H]3O)[C@@H](O[C@@H]3O[C@H](CO[C@H]4OC[C@@H](O)[C@H](O)[C@H]4O)[C@@H](O)[C@H](O)[C@H]3O)[C@H](O)[C@H]2O)[C@H](O)[C@H]1O)[C@H](O)[C@@H](O)CO [[3H]XXXGol]	–	radiochemical transglucosylase assay (XET, MXE, CXE) [2]: albeit at lower rates than onto the oligosaccharide [^3H]XXXGol
CCCCN1C[C@H](O)[C@@H](O)[C@H](O)[C@H]1CO [N-butyldeoxynojirimycin]	–	inhibition at 300 µM [3]: ~50%
OC[C@H]1O[C@@H](O[C@H]2[C@H](O)[C@@H](O)[C@H](O[C@H]3[C@H](O)[C@@H](O)[C@H](O[C@H]4[C@H](O)[C@@H](O)C(O)O[C@@H]4CO)O[C@@H]3CO)O[C@@H]2CO)[C@H](O)[C@@H](O)[C@@H]1O (stereo partly shown) [cellotetraose]	We found that cello‐oligosaccharides (C2–C6) are efficient inhibitors of Equisetum HTG	–
OC[C@H]1O[C@@H](O[C@H]2[C@H](O)[C@@H](O)C(O)O[C@@H]2CO)[C@H](O)[C@@H](O)[C@@H]1O (stereo partly shown) [cellobiose]	–	% inhibition ([1]; 0.01-80 mM inhibitor, [3H]XXXGol or [3H]XyG acceptor): Cellobiose inhibited EfHTG’s CXE activity equally whether [^3H]XXXGol or polymeric [^3H]XyG was the acceptor
